Source: ChEMBL document CHEMBL1123600, “N6-(2,2-diphenylethyl)adenosine, a novel adenosine receptor agonist with antipsychotic-like activity” (J Med Chem, 1987)

Legend:
Adenosine A2 receptor = Adenosine A2 receptor (Rattus norvegicus, UniProt P29276+P30543)
Description: Binding affinity to A2 adenosine receptor in rat striatal membranes by [3H]NECA (1-(6-amino-9H-purin-9-yl)-1-deoxy-N-ethyl-beta-D-ribofuranuronamide) displacement.

Mus musculus [1] = assay: Effect on Ataxia in mouse following i.p. administration.; assay type: functional; conditions: ip
Mus musculus [2] = assay: Effect on Motor activity in mouse following i.p. administration.; assay type: functional; conditions: ip
Adenosine receptor A1 = target: T1, Adenosine receptor A1 (Rattus norvegicus, UniProt P25099)
T1 sequence (P25099 whole entry): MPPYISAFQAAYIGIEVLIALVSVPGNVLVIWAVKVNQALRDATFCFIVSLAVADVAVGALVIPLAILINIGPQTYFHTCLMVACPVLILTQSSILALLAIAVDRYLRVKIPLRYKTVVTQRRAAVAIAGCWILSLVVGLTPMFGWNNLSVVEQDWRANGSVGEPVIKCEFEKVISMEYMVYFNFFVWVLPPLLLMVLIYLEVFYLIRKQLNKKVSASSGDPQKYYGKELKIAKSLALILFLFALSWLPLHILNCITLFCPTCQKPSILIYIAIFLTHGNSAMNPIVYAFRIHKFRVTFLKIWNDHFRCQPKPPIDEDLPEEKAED
Description: Binding affinity to adenosine A1 receptor in rat whole brain membranes by [3H]N6-cyclohexyladenosine displacement.

Rattus norvegicus [3] = assay: Effect on Ataxia(ATX) in rat was measured as ED50 by perorally administration of compound.; assay type: functional; conditions: po
Rattus norvegicus [4] = assay: Effect on Motor activity(MA) in rat was measured as ED50 by perorally administration of compound.; assay type: functional; conditions: po
Rattus norvegicus [5] = organism: Rattus norvegicus; assay: Effect on Sidman conditioned avoidance in rat.; assay type: functional

Ki (Adenosine A2 receptor)	Ki (Adenosine receptor A1)	SMILES	ED50 (Mus musculus [1])	ED50 (Mus musculus [2])	ED50 (Rattus norvegicus [3])	ED50 (Rattus norvegicus [4])	ED50 (Rattus norvegicus [5])
1230 nM	15.9 nM	OC[C@H]1O[C@@H](n2cnc3c(NCCCCc4ccccc4)ncnc32)[C@H](O)[C@@H]1O	> 100 mg/kg	32 mg/kg			
98 nM	2.4 nM	CC(CNc1ncnc2c1ncn2[C@@H]1O[C@H](CO)[C@@H](O)[C@H]1O)c1ccccc1 (mixture of isomers)	7 mg/kg	0.5 mg/kg			
420 nM	23 nM	OC[C@H]1O[C@@H](n2cnc3c(NCCCc4ccccc4)ncnc32)[C@H](O)[C@@H]1O	> 100 mg/kg	19 mg/kg			
280 nM		OC[C@H]1O[C@@H](n2cnc3c(NCc4ccccc4)ncnc32)[C@H](O)[C@@H]1O [N6-BENZYLADENOSINE]	> 100 mg/kg	22 mg/kg			
	12.7 nM	OC[C@H]1O[C@@H](n2cnc3c(NCCc4ccccc4)ncnc32)[C@H](O)[C@@H]1O	> 100 mg/kg	15 mg/kg			
4700 nM	290 nM	OC[C@H]1OC(n2cnc3c(NCCCC(c4ccccc4)c4ccccc4)ncnc32)[C@H](O)[C@@H]1O (stereo partly specified)	> 100 mg/kg	32 mg/kg			
320 nM	16.2 nM	CC(C)(CNc1ncnc2c1ncn2C1O[C@H](CO)[C@@H](O)[C@H]1O)c1ccccc1 (stereo partly specified)	30 mg/kg	6.7 mg/kg			
660 nM	4.6 nM	OC[C@H]1O[C@@H](n2cnc3c(Nc4ccccc4)ncnc32)[C@H](O)[C@@H]1O [N6-PHENYLADENOSINE]	30 mg/kg	25 mg/kg			

Further lines, the compound ahead of its results:

SMILES	Ki (Adenosine A2 receptor)	Ki (Adenosine receptor A1)	ED50 (Mus musculus [1])	ED50 (Mus musculus [2])	ED50 (Rattus norvegicus [3])	ED50 (Rattus norvegicus [4])	ED50 (Rattus norvegicus [5])
CC(CNc1ncnc2c1ncn2C1O[C@H](CO)[C@@H](O)[C@H]1O)(c1ccccc1)c1ccccc1 (stereo partly specified)	30 nM	37 nM	> 100 mg/kg	7 mg/kg			
CSc1ccc2c(c1)N(CCC1CCCCN1C)c1ccccc1S2 (stereo unspecified) [THIORIDAZINE]			13 mg/kg	3.3 mg/kg	> 30 mg/kg	13.3 mg/kg	19.7 mg/kg
OC[C@H]1O[C@@H](n2cnc3c(NCC(c4ccccc4)c4ccccc4)ncnc32)[C@H](O)[C@@H]1O	25 nM	6.8 nM	145 mg/kg	1.3 mg/kg	31 mg/kg	2.2 mg/kg	2.5 mg/kg
C[C@H](Cc1ccccc1)Nc1ncnc2c1ncn2[C@@H]1O[C@H](CO)[C@@H](O)[C@H]1O [(R)-PIA]			2 mg/kg	0.8 mg/kg			
O=C(CCCN1CCC(O)(c2ccc(Cl)cc2)CC1)c1ccc(F)cc1 [HALOPERIDOL]			12 mg/kg	0.27 mg/kg	> 1 mg/kg	0.24 mg/kg	0.3 mg/kg
C[C@@H](Cc1ccccc1)Nc1ncnc2c1ncn2[C@@H]1OC(CO)[C@@H](O)[C@H]1O (single isomer, unassigned)			75 mg/kg	16 mg/kg			
OC[C@H]1OC(n2cnc3c(NCCCCC(c4ccccc4)c4ccccc4)ncnc32)[C@H](O)[C@@H]1O (stereo partly specified)	2200 nM	146 nM	> 100 mg/kg	30 mg/kg			
OC[C@H]1OC(n2cnc3c(NCCC(c4ccccc4)c4ccccc4)ncnc32)[C@H](O)[C@@H]1O (stereo partly specified)	290 nM	79 nM	> 100 mg/kg	33 mg/kg			
OC[C@H]1OC(n2cnc3c(NCC(c4ccccc4)(c4ccccc4)c4ccccc4)ncnc32)[C@H](O)[C@@H]1O (stereo partly specified)	26000 nM	14300 nM	> 100 mg/kg	80 mg/kg			
OC[C@H]1OC(n2cnc3c(NC(c4ccccc4)c4ccccc4)ncnc32)[C@H](O)[C@@H]1O (stereo partly specified)	3800 nM	480 nM	> 100 mg/kg	80 mg/kg			
